System: subcutaneous transplanted tumors (CT26, LL/2, A375, MNK-45, SK-OV-3)
Assay: Inhibition of growth of subcutaneous transplanted tumors in tumor-bearing mouse model
Type: in vivo
Conditions: 10 mg/kg
Source text: Embodiment 4: Test of Anti-Tumor Effect (i.e., The Inhibition Effect on the Growth of Subcutaneous Transplanted Tumors in Animals) of the Anti-Tumor Compound Drug with a Tumor-Bearing Mouse Model
BALB/c ordinary mice and C57/BL6 ordinary mice, male, 18-20 g in weight, 7-8 weeks old, SPF grade, purchased from Shanghai SLAC Laboratory Animal Co., Ltd. [Laboratory Animal Quality Certificate Number: SCXK (Shanghai) 2007-0005].
Mice are given intravenous injections, and one dose group is set: cGAMP, 10 mg/kg; compound anti-tumor drug, 10 mg/kg
Positive control: cGAMP, 10 mg/kg in dose
Administration route: administration by intraperitoneal injection
Administration volume: 100 μl/animal
Number of times of administration: continuous administration for 21 days, once every day
Number of animals in each group: 10
Mouse colorectal cancer cell line CT26, mouse Lewis lung cancer cell line LL/2, human ovarian cancer cell line SK-OV-3, human melanoma cell line A375, and human gastric cancer cell line MNK-45, which are all purchased from the Cell Bank of the Chinese Academy of Sciences.
The administration is continued for 21 days. 21 days later, the mice are killed and the tumors are weighed. Tumor inhibition rate=[1−mean tumor weight of experimental group/mean tumor weight of group A)]×100%.
Data is expressed with x±s, and processed with SPSS10.0 software. […]

`Nc1nc2c(ncn2[C@@H]2O[C@@H]3COP(=O)(O)O[C@H]4[C@@H](O)[C@H](n5cnc6c(N)ncnc65)O[C@@H]4COP(=O)(O)O[C@@H]2[C@@H]3O)c(=O)[nH]1` [cGAMP, Cyclic [G(2′,5′)pA(3′,5′)p]] was tested, and the growth of tumors (once every day for 21 days, subcutaneous transplanted tumor models in mice) was “obviously inhibit the growth of tumors” and the “weights of tumors vs negative control group” value (after administration for 21 days, P<0.05, P<0.01) was “significantly lower than those of the negative control group”.

Source: patent US20210023115A1, “COMPOSITION OF ANTI-TUMOR COMPOUND DRUG AND APPLICATION THEREOF IN FIGHTING TUMORS” (HANGZHOU XINGAO BIOTECHNOLOGY CO. LTD, priority 2018, published 2021)
